Consider eleven molecules from patent US10118926B2, “Tricyclic quinoline and quinoxaline derivatives” (AbbVie Deutschland GmbH & Co. KG, priority 2012, dated 2018).

The assay has as its target T1, 5-HT2C receptor (Homo sapiens, UniProt P28335).
T1 construct: β-galactosidase enzyme-complementation fragment (ProLink-type donor); host or cells: U2OS
The experiment in a line: Functional activity: beta-arrestin2 recruitment to the 5-HT2C receptor in U2OS_HTR2C_β-Arrestin cells (DiscoverX). The format is cell-based. The following applies: for EC50: U2OS_HTR2C_β-Arrestin cells, 1.5 h incubation, chemiluminescent β-galactosidase complementation readout, read-out: Potency (EC50) in functional assay; for Emax / % efficacy: relative efficacy: response as percentage of response to 10 μM 5-HT or maximal effect induced by 5-HT (defined as 100%). How it is done:
The functional activity of compounds of formula I was assayed by incubation with U2OS_HTR2C_β-Arrestin cells (DiscoverX, 93-0289C3) to induce beta-arrestin2 recruitment to the 5-HT2C receptor. The agonist-induced recruitment and proximity of the receptor and beta-arrestin2 leads to complementation and formation of active β-galactosidase. The enzyme complementation results in enzyme activity, which is measured following the termination of the agonist incubation using DiscoveRx's detection reagent, which contains a chemiluminescent substrate which produces a high intensity signal. Cells were plated and a medium-change to a 1% serum containing medium was performed 24 h later. The next day, test compounds were added and incubated for 1.5 h before addition of detection reagent.
The response produced was measured and compared with the response produced by 10 [mu]M 5-HT or the maximal effect induced by 5-HT (defined as 100%) to which it was expressed as a percentage response (relative efficacy). Dose response curves were constructed using Graphpad Prism (Graph Software Inc.) or using in house adapted software using a 4 parameter dose response model with variable slope (fit=(Bottom+(Top−Bottom)/(1+10^((Log EC50−x)*HillSlope))res=(y−fit)). Results are compiled in the table below.
For orientation: Recruitment of arrestin is a read-out of receptor activation apart from second messengers.

The structures appear in SMILES notation. Where a name gives a salt, the structure may show the parent alone.

T1 sequence (P28335 33-458): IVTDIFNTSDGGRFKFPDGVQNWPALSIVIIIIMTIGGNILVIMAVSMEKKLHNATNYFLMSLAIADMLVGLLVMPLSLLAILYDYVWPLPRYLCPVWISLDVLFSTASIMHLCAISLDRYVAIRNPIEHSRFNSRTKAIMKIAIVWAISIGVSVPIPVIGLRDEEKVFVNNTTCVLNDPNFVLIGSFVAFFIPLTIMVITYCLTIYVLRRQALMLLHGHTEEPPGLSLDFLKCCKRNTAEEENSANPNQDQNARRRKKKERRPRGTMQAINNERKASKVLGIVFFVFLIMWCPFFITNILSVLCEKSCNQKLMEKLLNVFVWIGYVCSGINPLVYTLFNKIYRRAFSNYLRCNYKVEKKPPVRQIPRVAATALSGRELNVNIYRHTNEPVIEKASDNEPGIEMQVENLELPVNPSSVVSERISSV
T1 sequence (P32121 whole entry partner, the tested form may be a part): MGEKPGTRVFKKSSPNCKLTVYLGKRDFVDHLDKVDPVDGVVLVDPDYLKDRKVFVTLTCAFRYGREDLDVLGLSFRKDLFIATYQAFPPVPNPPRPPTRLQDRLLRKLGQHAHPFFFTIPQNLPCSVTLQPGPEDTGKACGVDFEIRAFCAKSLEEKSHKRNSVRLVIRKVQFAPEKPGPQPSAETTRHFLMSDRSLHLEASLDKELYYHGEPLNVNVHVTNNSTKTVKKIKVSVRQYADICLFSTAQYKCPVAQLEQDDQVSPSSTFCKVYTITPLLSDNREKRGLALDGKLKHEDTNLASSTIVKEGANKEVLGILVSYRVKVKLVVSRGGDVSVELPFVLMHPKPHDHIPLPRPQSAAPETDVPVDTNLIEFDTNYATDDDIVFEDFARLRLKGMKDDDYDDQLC

Take `c1cc2c3c(c1)N(C1CCC1)CCN3CCNC2` [Example 33, 1-Cyclobutyl-2,3,5,6,7,8-hexahydro-1H-[1,4]diazepino[1,7,6-de]quinoxaline 2,2,2-trifluoroacetate]: the EC50 (in general, the concentration that produces a half-maximal response) lay within 200 to 1000 nM and the Emax (commonly the greatest response seen or fitted, relative to the assay's reference) was 78%.

As to `CC1CNCc2cccc3c2N1CCC3(C)C` (stereo not shown) [Example 51, 4,8,8-Trimethyl-2,3,4,6,7,8-hexahydro-1H-[1,4]diazepino[6,7,1-ij]quinoline 2,2,2-trifluoroacetate], the half-maximal effective concentration (EC50) is 20 to 200 nM and the Emax amounted to 102%.

For `c1cc2c3c(c1)N(CC1CCCC1)CCN3CCNC2` [Example 37, 1-(Cyclopentylmethyl)-2,3,5,6,7,8-hexahydro-1H-[1,4]diazepino[1,7,6-de]quinoxaline], the EC50 lay within 200 to 1000 nM and the Emax is 21%.

Consider `c1cc2c3c(c1)C1(CCN3CCNC2)CC1` [Example 47, 1,2,3,4,6,7-Hexahydrospiro[[1,4]diazepino[6,7,1-ij]quinoline-8,1′-cyclopropane]], for which the EC50 lay within 20 to 200 nM and the Emax is 59%.

Turning to `CC1CNCc2ccc(F)c3c2N1CC1CCCN31` (stereo not shown) [Example 46, 1-Fluoro-7-methyl-5,6,7,9,9^a,10,11,12-octahydro-4H-[1,4]diazepino[1,7,6-de]pyrrolo[1,2-a]quinoxaline], the EC50 is 200 to 1000 nM and the Emax was 71%.

On to `Cc1ccc2c3c1N1CCCC1CN3CCNC2` (stereo not shown) [Example 59, 1-Methyl-5,6,7,9,9a,10,11,12-octahydro-4H-[1,4]diazepino[1,7,6-de]pyrrolo[1,2-a]quinoxaline, trifluoroacetic acid], for which the EC50 was in the range of 20 to 200 nM and the Emax was 51%.

Consider `Cc1ccc2c3c1CNCCN3CCC21CCC1` [Example 66, 11-Methyl-1,2,3,4,6,7-hexahydrospiro[[1,4]diazepino[6,7,1-ij]quinoline-8,1′-cyclobutane], 2,2,2-trifluoroacetic acid], for which the EC50 lay within 200 to 1000 nM and the Emax was 53%.

As to `c1cc2c3c(c1)N1CCCCCC1CN3CCNC2` (stereo not shown) [Example 44, 5,6,7,9,9a,10,11,12,13,14-decahydro-4H-azepino[1,2-a][1,4]diazepino[1,7,6-de]quinoxaline], the EC50 fell in the range of 20 to 200 nM and the maximum response (Emax) turned out to be 55%.

For `Fc1ccc2c3c1C1(CCC1)CCN3CCNC2` [Example 26, 9′-Fluoro-1′,2′,3′,4′,6′,7′-hexahydrospiro[cyclobutane-1,8′-[1,4]diazepino[6,7,1-ij]quinoline], hydrochloride], the maximal response (Emax) was 107%.

On to `CC1(C(F)(F)F)CCN2CCNCc3cccc1c32` (single isomer, unassigned) [Example 8, 8-Methyl-8-(trifluoromethyl)-2,3,4,6,7,8-hexahydro-1H-[1,4]diazepino [6,7,1-ij]quinoline], for which the “% efficacy” value is 40%.

In the case of `CC1CN2CCNCc3cccc(c32)C1(C)C` (single isomer, unassigned) [Example 28, Enantiomer of 7,8,8-trimethyl-1,2,3,4,7,8-hexahydro-6H-[1,4]diazepino[6,7,1-ij]quinoline]], the “% efficacy” value is reported as 55%.
